Experimental data published in patent US20080038290A1, “Cosmetic slimming composition containing an extract of biomass of the alga neochloris oleoabundans” (LVMH RECHERCHE, priority 2006, published 2008).
“Also recorded” adds a separate entry of the source.

Test system: explants of adipose tissues
Test: Assay of lipolytic activity: free fatty acids released into the culture medium from adipose tissue explants kept alive
Format: cell-based
Conditions: caffeine at a concentration of 0.01% (100 μg/ml)
Experimental: The different extracts are incorporated into the culture medium under the conditions described below.
After a contact time of 8 days, the activity is evaluated by assaying the fatty acids released into the culture medium.
Preparation of 9 explants of adipose tissues and keeping them alive in BEM (BIO-EC's Explants Medium)
Division of the explants into 3 batches of 3 explants: • a reference batch, in the presence of the culture medium • a batch treated with caffeine as a positive reference • a batch treated with an extract according to the invention
At D0 the explants are kept alive in 2 ml of culture medium in which the test extract is incorporated.
This treatment is repeated at D2, D4 and D6.
At D2, D4, D6 and D8 the culture medium is sampled. For each explant the media sampled at D2, D4, D6 and D8 are combined in the same tube and stored at −20° C. for assaying the fatty acids present in the medium.
After extraction of the culture medium, the free fatty acids present therein are separated off and assayed by high performance thin layer chromatography.
The lipolytic activity is evaluated by determining the proportions of free fatty acids released into the culture medium.

## Cn1c(=O)c2c(ncn2C)n(C)c1=O [Caffeine, caffeine]
  lipolytic effect: no longer having a lipolytic effect; also recorded: no longer active
